Measurements from the NIST ThermoML archive (doi:10.1021/je300692s).
± gives the expanded uncertainty stated by the source.

Assay: activity coefficient (dimensionless); of the first substance listed, at infinite dilution; xn = mol fraction of the nth substance listed
Conditions: 101 kPa, Liquid, Chromatography, x1 = 0

For `CCCC(C)=O` [pentan-2-one] + CCCCCCCCCC[N+]1(C)CCCC1.O=S(=O)([N-]S(=O)(=O)C(F)(F)F)C(F)(F)F, the activity coefficient (322.6 K) was 0.52 ± 0.06, the activity coefficient (332.5 K) was 0.53 ± 0.06 and the activity coefficient (342.8 K) was 0.54 ± 0.06.

Molecule `CCC[N+](=O)[O-]` [1-nitropropane] + CCCCCCCCCC[N+]1(C)CCCC1.O=S(=O)([N-]S(=O)(=O)C(F)(F)F)C(F)(F)F has an activity coefficient (322.6 K) of 0.62 ± 0.07, an activity coefficient (332.5 K) of 0.61 ± 0.07 and an activity coefficient (342.8 K) of 0.6 ± 0.06.

For `CCCCCCC` [heptane] + CCCCCC[N+]1(C)CCCC1.O=S(=O)([N-]S(=O)(=O)C(F)(F)F)C(F)(F)F, the activity coefficient (322.9 K) was 10.6 ± 1.1, the activity coefficient (333 K) was 9.43 ± 0.99 and the activity coefficient (343.1 K) was 9.58 ± 1.

For `CCCC(C)=O` [pentan-2-one] + CCCCCCCC[N+]1(C)CCCC1.O=S(=O)([N-]S(=O)(=O)C(F)(F)F)C(F)(F)F, the activity coefficient (323 K) was 0.49 ± 0.05, the activity coefficient (333 K) was 0.51 ± 0.06 and the activity coefficient (343.1 K) was 0.48 ± 0.05.

With `C1CCCCCC1` [cycloheptane] + CCCCCCCCCC[N+]1(C)CCCC1.O=S(=O)([N-]S(=O)(=O)C(F)(F)F)C(F)(F)F the activity coefficient (322.6 K) was 7 ± 0.74, the activity coefficient (332.5 K) was 9.72 ± 1 and the activity coefficient (342.8 K) was 13.3 ± 1.4.

`CCCO` [propan-1-ol] + CCCCCCCCCC[N+]1(C)CCCC1.O=S(=O)([N-]S(=O)(=O)C(F)(F)F)C(F)(F)F showed an activity coefficient (322.6 K) of 1.62 ± 0.17, an activity coefficient (332.5 K) of 1.47 ± 0.15 and an activity coefficient (342.8 K) of 1.32 ± 0.14.

`ClCCl` [dichloromethane] + CCCCCC[N+]1(C)CCCC1.O=S(=O)([N-]S(=O)(=O)C(F)(F)F)C(F)(F)F showed an activity coefficient (322.9 K) of 0.31 ± 0.04, an activity coefficient (333 K) of 0.36 ± 0.04 and an activity coefficient (343.1 K) of 0.35 ± 0.04.

In the case of `CCCCCCCCCC` [decane] + CCCCCCCC[N+]1(C)CCCC1.O=S(=O)([N-]S(=O)(=O)C(F)(F)F)C(F)(F)F, the activity coefficient (323 K) is reported as 14.8 ± 0.88, the activity coefficient (333 K) is reported as 12.5 ± 0.75 and the activity coefficient (343.1 K) is reported as 11 ± 0.66.

`CCC(C)CC` [3-methylpentane] + CCCCCCCCCC[N+]1(C)CCCC1.O=S(=O)([N-]S(=O)(=O)C(F)(F)F)C(F)(F)F gave an activity coefficient (322.6 K) of 3.65 ± 0.38, an activity coefficient (332.5 K) of 3.36 ± 0.35 and an activity coefficient (342.8 K) of 3.4 ± 0.36.

`CC(C)OC(C)C` [diisopropyl ether] + CCCCCCCCCC[N+]1(C)CCCC1.O=S(=O)([N-]S(=O)(=O)C(F)(F)F)C(F)(F)F showed an activity coefficient (322.6 K) of 2.29 ± 0.24, an activity coefficient (332.5 K) of 2.28 ± 0.24 and an activity coefficient (342.8 K) of 2.26 ± 0.24.

Work on `CC(C)CO` [2-methyl-1-propanol] + CCCCCC[N+]1(C)CCCC1.O=S(=O)([N-]S(=O)(=O)C(F)(F)F)C(F)(F)F yielded an activity coefficient (322.9 K) of 1.87 ± 0.11, an activity coefficient (333 K) of 2.67 ± 0.16 and an activity coefficient (343.1 K) of 1.65 ± 0.1.

Work on `CO` [methanol] + CCCCCC[N+]1(C)CCCC1.O=S(=O)([N-]S(=O)(=O)C(F)(F)F)C(F)(F)F yielded an activity coefficient (322.9 K) of 0.94 ± 0.1, an activity coefficient (333 K) of 1.77 ± 0.18 and an activity coefficient (343.1 K) of 0.95 ± 0.1.

With `CCCCCCCC` [octane] + CCCCCCCCCC[N+]1(C)CCCC1.O=S(=O)([N-]S(=O)(=O)C(F)(F)F)C(F)(F)F the activity coefficient (322.6 K) was 6.13 ± 0.64, the activity coefficient (332.5 K) was 5.92 ± 0.62 and the activity coefficient (342.8 K) was 5.76 ± 0.61.

In the case of `C#CCCCC` [1-hexyne] + CCCCCC[N+]1(C)CCCC1.O=S(=O)([N-]S(=O)(=O)C(F)(F)F)C(F)(F)F, the activity coefficient (322.9 K) is reported as 2.1 ± 0.22, the activity coefficient (333 K) is reported as 2.1 ± 0.22 and the activity coefficient (343.1 K) is reported as 2.09 ± 0.22.

With `CCCCCCCC` [octane] + CCCCCC[N+]1(C)CCCC1.O=S(=O)([N-]S(=O)(=O)C(F)(F)F)C(F)(F)F the activity coefficient (322.9 K) was 14.2 ± 1.5, the activity coefficient (333 K) was 13.4 ± 1.4 and the activity coefficient (343.1 K) was 12.9 ± 1.4.

With `ClC(Cl)Cl` [trichloromethane] + CCCCCCCC[N+]1(C)CCCC1.O=S(=O)([N-]S(=O)(=O)C(F)(F)F)C(F)(F)F the activity coefficient (323 K) was 0.56 ± 0.06, the activity coefficient (333 K) was 0.58 ± 0.06 and the activity coefficient (343.1 K) was 0.53 ± 0.06.

With `CC1CCCCC1` [methylcyclohexane] + CCCCCCCCCC[N+]1(C)CCCC1.O=S(=O)([N-]S(=O)(=O)C(F)(F)F)C(F)(F)F the activity coefficient (322.6 K) was 3.38 ± 0.36, the activity coefficient (332.5 K) was 3.28 ± 0.34 and the activity coefficient (342.8 K) was 3.15 ± 0.33.

In the case of `c1ccccc1` [benzene] + CCCCCC[N+]1(C)CCCC1.O=S(=O)([N-]S(=O)(=O)C(F)(F)F)C(F)(F)F, the activity coefficient (322.9 K) is reported as 0.76 ± 0.08, the activity coefficient (333 K) is reported as 0.77 ± 0.08 and the activity coefficient (343.1 K) is reported as 0.78 ± 0.08.

For `Cc1ccc(C)cc1` [1,4-dimethylbenzene] + CCCCCC[N+]1(C)CCCC1.O=S(=O)([N-]S(=O)(=O)C(F)(F)F)C(F)(F)F, the activity coefficient (322.9 K) was 1.35 ± 0.14, the activity coefficient (333 K) was 1.4 ± 0.14 and the activity coefficient (343.1 K) was 1.42 ± 0.15.

`CC(C)CO` [2-methyl-1-propanol] + CCCCCCCCCC[N+]1(C)CCCC1.O=S(=O)([N-]S(=O)(=O)C(F)(F)F)C(F)(F)F gave an activity coefficient (322.6 K) of 1.7 ± 0.18, an activity coefficient (332.5 K) of 1.53 ± 0.16 and an activity coefficient (342.8 K) of 1.39 ± 0.14.

`CCCCCC` [hexane] + CCCCCCCCCC[N+]1(C)CCCC1.O=S(=O)([N-]S(=O)(=O)C(F)(F)F)C(F)(F)F gave an activity coefficient (322.6 K) of 3.97 ± 0.42, an activity coefficient (332.5 K) of 3.78 ± 0.4 and an activity coefficient (342.8 K) of 3.68 ± 0.39.

`CCOCC` [diethyl ether] + CCCCCCCCCC[N+]1(C)CCCC1.O=S(=O)([N-]S(=O)(=O)C(F)(F)F)C(F)(F)F showed an activity coefficient (322.6 K) of 1.27 ± 0.13, an activity coefficient (332.5 K) of 1.25 ± 0.13 and an activity coefficient (342.8 K) of 1.25 ± 0.13.

`CO` [methanol] + CCCCCCCCCC[N+]1(C)CCCC1.O=S(=O)([N-]S(=O)(=O)C(F)(F)F)C(F)(F)F showed an activity coefficient (322.6 K) of 1.61 ± 0.17, an activity coefficient (332.5 K) of 1.32 ± 0.14 and an activity coefficient (342.8 K) of 1.36 ± 0.14.

Molecule `CC(C)O` [propan-2-ol] + CCCCCCCCCC[N+]1(C)CCCC1.O=S(=O)([N-]S(=O)(=O)C(F)(F)F)C(F)(F)F has an activity coefficient (322.6 K) of 1.52 ± 0.16, an activity coefficient (332.5 K) of 1.38 ± 0.14 and an activity coefficient (342.8 K) of 1.25 ± 0.13.

`c1ccncc1` [pyridine] + CCCCCCCC[N+]1(C)CCCC1.O=S(=O)([N-]S(=O)(=O)C(F)(F)F)C(F)(F)F gave an activity coefficient (323 K) of 0.42 ± 0.05, an activity coefficient (333 K) of 0.39 ± 0.05 and an activity coefficient (343.1 K) of 0.41 ± 0.05.

`ClC(Cl)(Cl)Cl` [tetrachloromethane] + CCCCCCCC[N+]1(C)CCCC1.O=S(=O)([N-]S(=O)(=O)C(F)(F)F)C(F)(F)F showed an activity coefficient (323 K) of 1.39 ± 0.14, an activity coefficient (333 K) of 1.3 ± 0.13 and an activity coefficient (343.1 K) of 1.15 ± 0.12.

Work on `c1ccsc1` [thiophene] + CCCCCCCCCC[N+]1(C)CCCC1.O=S(=O)([N-]S(=O)(=O)C(F)(F)F)C(F)(F)F yielded an activity coefficient (322.6 K) of 0.6 ± 0.06, an activity coefficient (332.5 K) of 0.6 ± 0.06 and an activity coefficient (342.8 K) of 0.61 ± 0.07.

`CCC(=O)CC` [pentan-3-one] + CCCCCC[N+]1(C)CCCC1.O=S(=O)([N-]S(=O)(=O)C(F)(F)F)C(F)(F)F showed an activity coefficient (322.9 K) of 0.47 ± 0.05, an activity coefficient (333 K) of 0.6 ± 0.06 and an activity coefficient (343.1 K) of 0.62 ± 0.07.

`CC(C)O` [propan-2-ol] + CCCCCCCC[N+]1(C)CCCC1.O=S(=O)([N-]S(=O)(=O)C(F)(F)F)C(F)(F)F showed an activity coefficient (323 K) of 1.4 ± 0.14, an activity coefficient (333 K) of 1.27 ± 0.13 and an activity coefficient (343.1 K) of 1.06 ± 0.11.

For `CCCCO` [butan-1-ol] + CCCCCCCCCC[N+]1(C)CCCC1.O=S(=O)([N-]S(=O)(=O)C(F)(F)F)C(F)(F)F, the activity coefficient (322.6 K) was 2.2 ± 0.23, the activity coefficient (332.5 K) was 1.85 ± 0.19 and the activity coefficient (342.8 K) was 1.64 ± 0.17.

With `CCCCO` [butan-1-ol] + CCCCCC[N+]1(C)CCCC1.O=S(=O)([N-]S(=O)(=O)C(F)(F)F)C(F)(F)F the activity coefficient (322.9 K) was 2.28 ± 0.24, the activity coefficient (333 K) was 2.86 ± 0.3 and the activity coefficient (343.1 K) was 2.04 ± 0.21.

For `C[N+](=O)[O-]` [nitromethane] + CCCCCC[N+]1(C)CCCC1.O=S(=O)([N-]S(=O)(=O)C(F)(F)F)C(F)(F)F, the activity coefficient (322.9 K) was 0.57 ± 0.06, the activity coefficient (333 K) was 0.57 ± 0.06 and the activity coefficient (343.1 K) was 0.56 ± 0.06.

`CCOCC` [diethyl ether] + CCCCCCCC[N+]1(C)CCCC1.O=S(=O)([N-]S(=O)(=O)C(F)(F)F)C(F)(F)F gave an activity coefficient (323 K) of 1.34 ± 0.14, an activity coefficient (333 K) of 1.34 ± 0.14 and an activity coefficient (343.1 K) of 1.14 ± 0.12.
